Assay results as given in article PMC12670426 (Journal of Medicinal Chemistry, 2025).
Like-named read-outs stand apart in the source and are kept apart here.

Assays:
[1] = Plasma protein binding, summary across species; format: in vitro ADME; conditions: summary across human, mouse and rat plasma
Procedure: (§1) Test compound (10 μM) was incubated at 37 °C for 4 h with mouse, rat, or human plasma (Biowest) in the donor well of a rapid equilibrium dialysis plate (Thermo Fisher Scientific). PBS was placed in the acceptor well. To stop the assay, samples were collected from both wells, and an equal volume of plasma was added to the PBS sample, and vice versa. Proteins were then precipitated by adding three volumes of ice-cold methanol. Samples were mixed gently, kept at −20 °C for 30 min, and then stored at 4 °C overnight. The next day, the samples were centrifuged, and the supernatants were diluted with four volumes of 30% methanol in water. The samples were then analyzed using the Echo-MS system (SCIEX) with MRM transition monitoring, except for compound 3af, which was analyzed by LC–MS/MS as described in the plasma stability assay.

[2] = Microsomal stability assay, rat liver microsomes; format: in vitro ADME; conditions: pooled liver microsomes, pH 7.4, rat liver microsomes 0.5 mg/mL, NADPH
Procedure: (§2) Microsomal stability was determined using 0.5 mg/mL of pooled human, mouse, or rat liver microsomes (Thermo Fisher Scientific) in 90 mM TRIS-Cl buffer (pH 7.4) containing 2 mM NADPH and 2 mM MgCl2. Test compounds (10 μM) were added, and the resulting mixture was incubated at 37 °C for 10, 60, 120, and 180 min. The reactions were terminated by the addition of four volumes of ice-cold methanol, followed by vigorous mixing. The samples were left at −20 °C for 30 min and then stored at 4 °C overnight. The next day, samples were centrifuged, and supernatants were diluted with four volumes of 30% methanol in water. Zero time points were prepared by adding ice-cold methanol to the mixture of compounds and cofactors prior to the addition of microsomes. The samples were then analyzed using the Echo-MS system (SCIEX) with MRM transition monitoring, except for compound 3af, which was analyzed by LC–MS/MS as described in the plasma stability assay.

[3] = Kinetic solubility assay in PBS; format: physicochemical; conditions: aqueous buffer, kinetic from dmso stock; PBS at pH 7.4, 100 μM final, 2 h room temperature
Procedure: The solutions were incubated at room temperature for 2 h and filtered by centrifugation. Filtrates were diluted 100-fold with 50% acetonitrile in water and then analyzed on the Echo-MS system (SCIEX) using MRM transition monitoring, except for compound 3af, which was analyzed by LC–MS/MS as described in the plasma stability assay. Compound concentrations were quantified against calibration curves prepared in the identical matrix as the samples.

[4] = Microsomal stability assay, human liver microsomes; format: in vitro ADME; conditions: pooled liver microsomes, pH 7.4, human liver microsomes 0.5 mg/mL, NADPH
Procedure: as §2

[5] = Plasma stability assay, human plasma; format: in vitro ADME; conditions: pooled plasma, 37 °C
Procedure: (§3) Test compounds (10 μM) were incubated with mouse, rat, or human pooled plasma from 50 donors (Biowest) at 37 °C for 20, 60, and 120 min. Reactions were terminated by adding four volumes of ice-cold methanol, followed by vigorous mixing. Samples were kept at −20 °C for 30 min and then stored at 4 °C overnight. The next day, samples were centrifuged, and supernatants were diluted with four volumes of 30% methanol in water. Zero time points were prepared by adding ice-cold methanol to the compound prior to the addition of plasma. Samples were then analyzed on an Echo MS system (SCIEX) using multiple reaction monitoring (MRM). The only exception was compound 3af, which was analyzed by LC–MS/MS (SCIEX 6500 triple quadrupole) due to its weak ionization in Echo-MS.

[6] = Plasma stability assay, mouse plasma; format: in vitro ADME; conditions: 37 °C
Procedure: as §3

[7] = Plasma protein binding assay (rapid equilibrium dialysis), mouse plasma; format: in vitro ADME; conditions: fraction bound, read-out: plasma protein binding Fb mouse (converted)
Procedure: as §1

[8] = target: T1, human galectin-1 (Gal-1, full length) (Homo sapiens, UniProt P09382); assay: Competitive fluorescence polarization assay, Gal-1; format: binding
T1 construct: Gal-1 is a prototype galectin consisting of a single CRD and was used in full length; 6xHis tag with TEV protease site (N, cleaved yes); made in house; host or cells: BL21 Escherichia coli (pET-15b)
Summary of the method: (§4)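 Competitive fluorescence polarization (anisotropy) with a fluorescent probe; full-length Gal-1 and C-terminal CRD construct of Gal-3. Read after 30–60 min incubation at 25 °C. Kd fitted with Wang's exact cubic competitive model, rmin/rmax fixed from direct binding.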

[9] = Plasma protein binding assay (rapid equilibrium dialysis), human plasma; format: in vitro ADME; conditions: fraction bound, read-out: plasma protein binding Fb human (converted)
Procedure: as §1

[10] = target: T2, human galectin-3C (Gal-3C, C-terminal CRD of galectin-3) (Homo sapiens, UniProt P17931); assay: Competitive fluorescence polarization assay, Gal-3C; format: binding
T2 construct: only the C-terminal domain was used (Gal-3C); 6xHis tag with TEV protease site (N, cleaved yes); made in house; host or cells: BL21 Escherichia coli (pET-15b)
Summary of the method: as §4

[11] = Plasma protein binding assay (rapid equilibrium dialysis), rat plasma; format: in vitro ADME; conditions: fraction bound, read-out: plasma protein binding Fb rat (converted)
Procedure: as §1

[12] = Plasma stability assay, rat plasma; format: in vitro ADME; conditions: 37 °C
Procedure: as §3

[13] = Microsomal stability assay, mouse liver microsomes; format: in vitro ADME; conditions: pooled liver microsomes, pH 7.4, mouse liver microsomes 0.5 mg/mL, NADPH
Procedure: as §2

galectin CRD = target: galectin CRD; parameters: method as in not given; conditions: endogenous ligand binding the galectin CRD; literature value, ref not given; cited from earlier work
Gal-1 = assay: Direct binding fluorescence polarization of the fluorescent probe, Gal-1; parameters: species or system human; conditions: [probe] 100 nM, mean ± SD
Procedure: (§5) Fluorescence polarization measurements were performed at 25 °C using a Tecan Spark multiplate reader (Tecan, Switzerland) with excitation at 485 ± 20 nm and emission at 535 ± 20 nm in a 384-well black polystyrene microplate (Corning 4514, USA). Dissociation constants of the probe (K d ^*) were determined by fitting the binding data with a quadratic model for direct binding using the BindCurve package. Additional details on the model, probe concentrations, and fitting parameters are provided in the Supporting Information.
(§6) Fluorescence polarization
(§7) Direct binding was modeled by a quadratic model, which is written as […]
(§8) where r corresponds to the measured anisotropy, rmin corresponds to the anisotropy of the free probe (labeled ligand), and rmax corresponds to maximal anisotropy, which is achieved when all molecules of the probe are bound to the receptor. Kd∗ is the dissociation constant of the probe and [R] is the concentration of free receptor. [R] is determined by a quadratic equation […]
(§9) where [L∗]T is the total concentration of the probe and [R]T is the total concentration of the receptor. Using quadratic formula, the positive root is calculated as […]
(§10) Table S1. Calculated Kd∗ values, total concentrations of the fluorescent probe, and model asymptotes from direct binding experiments. […]
(§11) a K∗ values are expressed as mean ± SD from two independent experiments, each performed […]

Gal-3C = target: T3, Gal-3C (Homo sapiens, UniProt P17931); assay: Direct binding fluorescence polarization of the fluorescent probe, Gal-3C; conditions: [probe] 5 nM, mean ± SD
T3 construct: only the C-terminal domain was used (Gal-3C); 6xHis tag with TEV protease site (N, cleaved yes); made in house; host or cells: BL21 Escherichia coli (pET-15b)
Procedure: as §5, §6, §7, §8, §9, §10, §11

[14] = CSV supplement, unrounded mean, read-out: Gal1_IC50_mean_uM
[15] = CSV supplement, unrounded mean, read-out: Gal1_Kd_mean_uM
[16] = competitive fluorescence polarization, mean ± SD, read-out: Kd Gal-1
[17] = four-parameter logistic model, mean ± SD, read-out: IC50 Gal-1
[18] = CSV supplement, unrounded mean, read-out: Gal3C_IC50_mean_uM
[19] = CSV supplement, unrounded mean, read-out: Gal3C_Kd_mean_uM
[20] = competitive fluorescence polarization, mean ± SD, read-out: Kd Gal-3C
[21] = four-parameter logistic model, mean ± SD, read-out: IC50 Gal-3C

T1 sequence (P09382 2-135): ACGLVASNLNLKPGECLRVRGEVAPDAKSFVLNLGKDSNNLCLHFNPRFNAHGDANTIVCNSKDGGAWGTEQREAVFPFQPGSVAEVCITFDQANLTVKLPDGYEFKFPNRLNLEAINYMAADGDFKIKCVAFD
T2 sequence (P17931 118-248 limits assumed): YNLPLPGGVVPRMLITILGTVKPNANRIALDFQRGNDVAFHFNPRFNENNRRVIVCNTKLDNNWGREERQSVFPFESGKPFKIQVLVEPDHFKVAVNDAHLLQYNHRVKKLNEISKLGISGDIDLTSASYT
T3 sequence (P17931 118-248 limits assumed): as above

SMILES | fraction unbound at 4 h, 10 μM [1] | microsomal CLint at 10 μM [2] [µL/min/mg] | solubility kinetic at 2 h [3] [µM] | microsomal CLint at 10 μM [4] [µL/min/mg] | remaining at 2 h, 10 μM [5] [%] | remaining at 2 h, 10 μM [6] [%] | fraction unbound at 4 h, 10 μM [7] | IC50 [8, 14] [µM] | Kd [8, 15] [µM] | Kd [8, 16] [µM] | IC50 [8, 17] [µM] | fraction unbound at 4 h, 10 μM [9] | IC50 [10, 18] [µM] | Kd [10, 19] [µM] | Kd [10, 20] [µM] | IC50 [10, 21] [µM] | fraction unbound at 4 h, 10 μM [11] | remaining at 2 h, 10 μM [12] [%] | microsomal CLint at 10 μM [13] [µL/min/mg] | other results
CC(=O)N(c1cc(O)cc(C(=O)O)c1)[C@@H]1O[C@H](CO)[C@@H](O[C@@H]2O[C@H](CO)[C@H](O)[C@H](O)[C@H]2O)[C@H](O)[C@H]1O [Compound 3ad, N-[4-O-(β-D-Galactopyranosyl)-β-D-glucopyranosyl]-N-(3-carboxy-5-hydroxyphenyl)acetamide] | > 0.9 | < 2 | > 100 | < 2 | 99 ± 8 | 110 ± 2 | 0.93 | 1240 | 737 | 740 ± 20 | 1200 ± 300 | 0.94 | 32.2 | 11.4 | 11 ± 2 | 32 ± 2 | 0.94 | 140 ± 7 | < 2 | 
CC(=O)N(c1cc(C(=O)O)cc2[nH]ccc12)[C@@H]1O[C@H](CO)[C@@H](O[C@@H]2O[C@H](CO)[C@H](O)[C@H](O)[C@H]2O)[C@H](O)[C@H]1O [Compound 3af, N-[4-O-(β-D-Galactopyranosyl)-β-D-glucopyranosyl]-N-(6-carboxy-1H-indol-4-yl)acetamide] | > 0.9 | < 2 | > 100 | 3 | 100 | 76 | > 0.95 | 1530 | 846 | 850 ± 200 | 1500 ± 300 | > 0.95 | 11.4 | 4.15 | 4.1 ± 0.4 | 11 ± 0.9 | 0.73 | 94 | < 2 | enhancement of affinity for Gal-3C compared to 3r ([10]; compared to 3r): 10 fold; improvement in affinity toward Gal-3C compared to 3a ([10]; compared to unsubstituted phenyl derivative 3a): 27 fold; improvement in affinity toward Gal-3C compared to β-LacOMe ([10]; compared to β-LacOMe): 56 fold; selectivity for Gal-3C over Gal-1 ([10]; ratio Kd (Gal-1)/Kd (Gal-3C)): more than 200 fold
CC(=O)c1c[nH]c2cc(C(=O)O)cc(N(C(C)=O)[C@@H]3O[C@H](CO)[C@@H](S[C@@H]4O[C@H](CO)[C@H](O)[C@H](n5cc(-c6cccc(F)c6)nn5)[C@H]4O)[C@H](O)[C@H]3O)c12 [Compound 10, N-[4-S-(3-Deoxy-3-(4-(3-fluorophenyl)-1H-1,2,3-triazol-1-yl)-β-D-galactopyranosyl)-4-thio-β-D-glucopyranosyl]-N-(3-acetyl-6-carboxy-1H-indol-4-yl)acetamide] | 0.1 to 0.78 | < 2 | > 100 | < 2 | 92 ± 6 | 89 ± 5 | 0.78 | 7.16 | 3.62 | 3.6 ± 0.4 | 7.2 ± 0.6 | 0.66 | 0.154 | 0.0315 | 0.031 ± 0.004 | 0.15 ± 0.009 | 0.75 | 110 ± 5 | < 2 | 
CC(=O)N[C@H]1C(O)O[C@H](CO)[C@@H](O[C@@H]2O[C@H](CO)[C@H](O)[C@H](O)[C@H]2O)[C@@H]1O (stereo partly shown) [LacNAc, N-acetyllactosamine] |  |  |  |  |  |  |  |  |  |  |  |  |  |  |  |  |  |  |  | Kd (galectin CRD): ~100 µM
O=C(NCc1cn([C@H]2[C@@H](O)[C@@H](CO)O[C@@H](S[C@@H]3O[C@H](CO)[C@H](O)[C@H](n4cc(-c5cccc(F)c5)nn4)[C@H]3O)[C@@H]2O)nn1)c1ccc2c(c1)C(=O)OC21c2ccc(O)cc2Oc2cc(O)ccc21 [fluorescent probe, 3-deoxy-3-[4-(fluorescein-5-yl-carbonylaminomethyl)-1H-1,2,3-triazol-1-yl]-β-D-galactopyranosyl-3-deoxy-3-[4-(3-fluorophenyl)-1H-1,2,3-triazol-1-yl]-1-thio-β-D-galactopyranoside] |  |  |  |  |  |  |  |  |  |  |  |  |  |  |  |  |  |  |  | Kd (Gal-1): 0.74 ± 0.009 µM; Kd (Gal-3C): 0.022 ± 0.002 µM
